Assay results published in BindingDB's records for PubMed 27409354 (n/a, 2016).
pKi: −log10 of the molar value.

Experiment: Binding affinity to CypD (unknown origin)

With `O=C(Nc1ccc2nc(-c3ccco3)c(-c3ccco3)nc2c1)N1CCCC1` the pKi was 5.70.
